In PubChem BioAssay AID328 (DTP/NCI, 2004) one finds T/C data, which are given here for 11 compounds.

The experiment concerns BDF1 mice, P388 leukemia ip, median survival T/C. Briefly: NCI In Vivo Anticancer Drug Screen. Data for tumor model P388 Leukemia (intraperitoneal) in B6D2F1 (BDF1) mice. As to conditions: endpoint: median survival time, higher = longer survival. The essentials: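 In tumour-bearing mice, survival after compound treatment is set against the vehicle group and given as a quotient.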

Where [1] appears, read: dose: 200.0 mg/kg/injection, schedule: Q01DX001 (ip), vehicle: Klucel (hydroxypropylcellulose) (HPC).
Where [2] appears, read: dose: 50.0 mg/kg/injection, schedule: Q01DX009 (ip), vehicle: saline with Tween-80.
Where [3] appears, read: dose: 100.0 mg/kg/injection, schedule: Q01DX009 (ip), vehicle: saline with Tween-80.
[4] abbreviates: dose: 100.0 mg/kg/injection, schedule: Q04DX003 (ip), vehicle: Klucel (hydroxypropylcellulose) (HPC).
Setting [5] is: dose: 100.0 mg/kg/injection, schedule: Q04DX003 (ip), vehicle: saline with Tween-80.
Setting [6] is: dose: 200.0 mg/kg/injection, schedule: Q04DX003 (ip), vehicle: Klucel (hydroxypropylcellulose) (HPC).
[7] abbreviates: dose: 200.0 mg/kg/injection, schedule: Q04DX003 (ip), vehicle: saline with Tween-80.
Setting [8] is: dose: 400.0 mg/kg/injection, schedule: Q04DX003 (ip), vehicle: saline with Tween-80.
Where [9] appears, read: dose: 100.0 mg/kg/injection, schedule: Q01DX009 (ip), vehicle: saline.
Where [10] appears, read: dose: 200.0 mg/kg/injection, schedule: Q01DX009 (ip), vehicle: saline with Tween-80.

The structures appear in SMILES notation. Where “and” joins values, the source holds several entries; their conditions need not be identical. Equal values may be shown once. Toxic doses and inconclusive results are not listed.

For the compound `CCCCCCCCCCCCNCCCCCCCCCCCC`, the T/C is 100 % of control (dose: 1.0 mg/kg/injection, schedule: Q01DX010 (ip), vehicle: other); 100 % of control (dose: 2.0 mg/kg/injection, schedule: Q01DX010 (ip), vehicle: other); 90 % of control (dose: 3.0 mg/kg/injection, schedule: Q01DX010 (ip), vehicle: other); 100 % of control (dose: 3.12 mg/kg/injection, schedule: Q01DX009 (ip), vehicle: Klucel (hydroxypropylcellulose) (HPC)); 100 % of control (dose: 3.25 mg/kg/injection, schedule: Q01DX001 (ip), vehicle: Klucel (hydroxypropylcellulose) (HPC)); 100 % of control (dose: 4.0 mg/kg/injection, schedule: Q01DX010 (ip), vehicle: other). For the same compound, the T/C (dose: 6.25 mg/kg/injection, schedule: Q01DX009 (ip), vehicle: Klucel (hydroxypropylcellulose) (HPC)) is 90 % of control; the T/C (dose: 6.5 mg/kg/injection, schedule: Q01DX001 (ip), vehicle: Klucel (hydroxypropylcellulose) (HPC)) is 100 % of control; the T/C (dose: 8.0 mg/kg/injection, schedule: Q01DX010 (ip), vehicle: water) was 100 % of control; the T/C (dose: 12.5 mg/kg/injection, schedule: Q01DX009 (ip), vehicle: Klucel (hydroxypropylcellulose) (HPC)) was 95 % of control; the T/C (dose: 13.0 mg/kg/injection, schedule: Q01DX001 (ip), vehicle: Klucel (hydroxypropylcellulose) (HPC)) is 100 % of control; the T/C (dose: 18.0 mg/kg/injection, schedule: Q01DX009 (ip), vehicle: Klucel (hydroxypropylcellulose) (HPC)) is 95 % of control. The T/C by setting is: (dose: 60.0 mg/kg/injection, schedule: Q01DX001 (ip), vehicle: Klucel (hydroxypropylcellulose) (HPC)) 100 % of control; (dose: 90.0 mg/kg/injection, schedule: Q01DX001 (ip), vehicle: Klucel (hydroxypropylcellulose) (HPC)) 100 % of control; (dose: 130.0 mg/kg/injection, schedule: Q01DX001 (ip), vehicle: Klucel (hydroxypropylcellulose) (HPC)) 105 % of control; (dose: 135.0 mg/kg/injection, schedule: Q01DX001 (ip), vehicle: Klucel (hydroxypropylcellulose) (HPC)) 104 % of control; under setting [1], 115 % of control; (dose: 300.0 mg/kg/injection, schedule: Q01DX001 (ip), vehicle: Klucel (hydroxypropylcellulose) (HPC)) 110 % of control. In addition, for the setting “dose: 305.0 mg/kg/injection, schedule: Q01DX001 (ip), vehicle: Klucel (hydroxypropylcellulose) (HPC)”, the T/C was 109 % of control.
Take `CCCCNc1nc(N)nc(Nc2ccc(Br)cc2)c1N=O`: the T/C runs as follows: (dose: 25.0 mg/kg/injection, schedule: Q01DX009 (ip), vehicle: saline with Tween-80) 90 % of control; under setting [2], 90 % of control; (dose: 100.0 mg/kg/injection, schedule: Q01DX001 (ip), vehicle: Klucel (hydroxypropylcellulose) (HPC)) 100 % of control; under setting [3], 90 % of control and 91 % of control; under setting [4], 120 % of control; under setting [5], 86 % of control. Moreover, the T/C is 100 % of control and 109 % of control (dose: 132.0 mg/kg/injection, schedule: Q04DX003 (ip), vehicle: Klucel (hydroxypropylcellulose) (HPC)); 91 % of control under setting [1]; 104 % of control under setting [6]; 104 % of control under setting [7]; 90 % of control and 113 % of control (dose: 300.0 mg/kg/injection, schedule: Q04DX003 (ip), vehicle: Klucel (hydroxypropylcellulose) (HPC)); 91 % of control (dose: 400.0 mg/kg/injection, schedule: Q01DX001 (ip), vehicle: Klucel (hydroxypropylcellulose) (HPC)). Moreover, under setting [8], the T/C was 100 % of control.
In the case of `COc1cc(Nc2nc(N)ncc2N)cc(OC)c1OC`, the T/C is, setting by setting: (dose: 100.0 mg/kg/injection, schedule: Q01DX001 (ip), vehicle: saline with Tween-80) 91 % of control; (dose: 200.0 mg/kg/injection, schedule: Q01DX001 (ip), vehicle: saline with Tween-80) 91 % of control; (dose: 400.0 mg/kg/injection, schedule: Q01DX001 (ip), vehicle: saline with Tween-80) 100 % of control.
For `Cc1cc2cc3c(=O)[nH]c(=O)nc-3n(CC(O)C(O)C(O)COP(=O)(O)O)c2cc1C` (configuration not stated), the T/C reads like this: (dose: 66.0 mg/kg/injection, schedule: Q01DX009 (ip), vehicle: saline) 100 % of control; under setting [9], 95 % of control and 100 % of control; (dose: 100.0 mg/kg/injection, schedule: Q04DX003 (ip), vehicle: saline) 100 % of control; (dose: 200.0 mg/kg/injection, schedule: Q04DX003 (ip), vehicle: saline) 113 % of control; (dose: 400.0 mg/kg/injection, schedule: Q04DX003 (ip), vehicle: saline) 100 % of control.
On to `CCc1cc(CC)n2cnnc2n1`, for which the T/C (dose: 50.0 mg/kg/injection, schedule: Q01DX009 (ip), vehicle: saline) was 89 % of control and the T/C under setting [9] is 89 % of control.
Take `c1ccc2sc(SNC3CCCCC3)nc2c1`: the T/C runs as follows: (dose: 200.0 mg/kg/injection, schedule: Q04DX002 (ip), vehicle: saline) 103 % of control; (dose: 400.0 mg/kg/injection, schedule: Q04DX002 (ip), vehicle: saline) 122 % of control.
On to `CC1(C)N=C(N)N=C(N)N1c1ccc(OCCOc2ccc(NC(=O)CBr)cc2)cc1`, for which the T/C (dose: 2.5 mg/kg/injection, schedule: Q01DX009 (ip), vehicle: saline with Tween-80) was 95 % of control; the T/C (dose: 5.0 mg/kg/injection, schedule: Q01DX009 (ip), vehicle: saline with Tween-80) is 112 % of control; the T/C under setting [3] is 172 % of control; the T/C under setting [9] is 230 % of control; the T/C (dose: 100.0 mg/kg/injection, schedule: Q04DX003 (ip), vehicle: saline sonified) was 165 % of control and 170 % of control; the T/C (dose: 150.0 mg/kg/injection, schedule: Q01DX009 (ip), vehicle: saline with Tween-80) was 218 % of control. Also, the T/C by setting is: (dose: 150.0 mg/kg/injection, schedule: Q04DX003 (ip), vehicle: saline sonified) 165 % of control; (dose: 200.0 mg/kg/injection, schedule: Q01DX009 (ip), vehicle: saline) 90 % of control; (dose: 200.0 mg/kg/injection, schedule: Q04DX003 (ip), vehicle: saline sonified) 200 % of control; (dose: 400.0 mg/kg/injection, schedule: Q04DX003 (ip), vehicle: saline sonified) 245 % of control.
As to `O=c1ccccn1C/C(=N\O)c1ccccc1`, the T/C was 95 % of control (dose: 100.0 mg/kg/injection, schedule: Q01DX009 (ip), vehicle: Klucel (hydroxypropylcellulose) (HPC)); 100 % of control under setting [4]; 95 % of control (dose: 200.0 mg/kg/injection, schedule: Q01DX009 (ip), vehicle: Klucel (hydroxypropylcellulose) (HPC)); 95 % of control under setting [6]; 100 % of control (dose: 400.0 mg/kg/injection, schedule: Q01DX009 (ip), vehicle: Klucel (hydroxypropylcellulose) (HPC)); 100 % of control (dose: 400.0 mg/kg/injection, schedule: Q04DX003 (ip), vehicle: Klucel (hydroxypropylcellulose) (HPC)).
For `COc1cc(OC)c(/C=C/c2ccncn2)c(OC)c1`, the T/C is, setting by setting: under setting [2], 101 % of control; under setting [3], 108 % of control; under setting [10], 117 % of control.
In the case of `O=C(c1cccs1)c1cccs1`, the T/C is, setting by setting: under setting [2], 101 % of control; under setting [3], 108 % of control; under setting [5], 102 % of control; under setting [10], 92 % of control; under setting [7], 90 % of control; (dose: 400.0 mg/kg/injection, schedule: Q01DX009 (ip), vehicle: saline with Tween-80) 99 % of control. For the same compound, under setting [8], the T/C is 112 % of control.
Regarding `[Cr+6].[NH2-].[NH2-].[NH2-].[NH2-].[NH2-].[NH2-]`, the T/C is, setting by setting: (dose: 4.1 mg/kg/injection, schedule: Q04DX003 (ip), vehicle: saline) 116 % of control; (dose: 5.4 mg/kg/injection, schedule: Q04DX003 (ip), vehicle: saline) 109 % of control; (dose: 6.25 mg/kg/injection, schedule: Q01DX009 (ip), vehicle: saline) 120 % of control; (dose: 8.2 mg/kg/injection, schedule: Q01DX009 (ip), vehicle: saline) 122 % of control; (dose: 8.2 mg/kg/injection, schedule: Q04DX003 (ip), vehicle: saline) 109 % of control; (dose: 25.0 mg/kg/injection, schedule: Q01DX001 (ip), vehicle: saline) 112 % of control. For the same compound, the T/C (dose: 50.0 mg/kg/injection, schedule: Q01DX001 (ip), vehicle: saline) is 112 % of control.
